Data from patent publication US20130273113A1 (priority 2012, published 2013).

Legend:
[1] = system: nasal septal tissue; parameters: species or system C57BL/6 mice; settings: mouse, in vivo
[2] = system: B6.Cg-Tg(HLA-A/H2-D)2Enge/J mice; settings: mouse, in vivo
[3] = system: primary nasal septal epithelial cells; type: cell-based, C57BL/6N mice
[4] = system: TC-1 epithelial cells; type: cell-based, murine
[5] = system: Bone marrow derived dendritic cells (BMDC); type: cell-based, C57BL/6 mice
[6] = system: nasal epithelial cells; test: Detection of apoptosis (caspase-3 staining) and necrosis (morphology) in nasal epithelium; settings: 2 hours following nasal treatment, 15 μl

cholera toxin [CT]
cytokine response profile in nasal septal tissue [1]: increases in only IL-6 and IL-12 common to both NE and CT
end titer of anti-HBsAg IgG [2]: 6.4×10^5
secreted anti-HBsAg IgA [2]: equivalent local mucosal immune responses
surface expression of MHC class II [3]: no significant difference
IL-6, TGF-β and TSLP in TC-1 supernatant [4]: only IL-6 was induced
cytokines and chemokines in BMDC supernatant [5]: stimulated IL-1α, IL-1β and MIP-1α in BMDC in addition to IL-10, G-CSF, IL-10, IL-4, IL-6, IL-9, IL-12, IL-15, IL-17, TNF-α, and KC

CCCCCCCCCCCCCCCC[n+]1ccccc1 [CPC, cetylpyridinium chloride]
inflammation in nasal epithelium [6]: neutrophilic infiltration
